Consider three molecules from US20080070888A1, “AZETIDINE AND AZETIDONE DERIVATIVES USEFUL IN TREATING PAIN AND DISORDERS OF LIPID METABOLISM” (priority 2006, published 2008).

The assay deals with T1, CaV3.2 (Homo sapiens, UniProt O95180).
T1 construct: expressed in transfected cells; host or cells: HEK cells, stably transfected; human Kir2.1 co-expressed
The assay is described as follows: CaV3.2 assay: functional evaluation of T-type calcium currents (IonWorks HT screen for hCaV3.2 / conventional whole cell patch clamp) in stably transfected HEK cells. The assay is classed as cell-based. The text has this:
Functional evaluation of voltage-gated ion channels was used to determine potency and/or single concentration efficacy of proprietary compounds. Two different methodologies were used to measure ion currents: the IonWorks HT (Molecular Devices, Sunnyvale, Calif.) a moderate throughput voltage clamp screening platform that utilizes 96-well compound plates and conventional whole cell patch clamp for lower throughput, higher fidelity determinations.
HEK cells were transiently transfected and then selected for stable heterologous expression of different channel proteins of interest. Calcium channel cell lines expressed a resting potassium current, human Kir2.1, and the pore forming α-subunit of voltage-gated calcium channels. In the case of Cav2.1 cells the auxiliary subunit, β2a, was also expressed. Calcium channel lines that were used to generate the data in this document expressed either human Cav3.2, rat Cav3.2 or human Cav2.1. The human heart sodium channel, hNav1.5, was stably expressed in CHO cells. These cells were licensed from the University of Pennsylvania.
Cell lines were grown at 37° C. in humidified incubators, equilibrated with 95% air/5% CO2. CHO cells were grown in Ham's F-12 medium. HEK cells were grown in DMEM. All media were supplemented with 10% heat-inactivated fetal bovine serum, penicillin, streptomycin and appropriate selection antibiotics (zeocin, geneticin and/or hygromycin). Cells were passaged when 80% confluent or less.
Ionworks Screen for hCaV3.2
The extracellular buffer for experiments using this instrument contained the following (mM) (NaCl 125, HEPES 10, KCl 5.4, CaCl2 1.8, MgCl2 1.8, 0.2 BaCl2 pH 7.35). […]
Experiments were performed at room temperature. […] During this time leak currents were measured during a step to −110 mV (200 milliseconds). […]
T-type currents were measured as the peak inward current minus the current at the end of the 250 msec step to −20 mV. […] After incubation with compound for 10 minutes currents were measured again. […] For each compound, 8-point concentration-effect relationships were measured with ½ log serial dilutions. […]
(In general: Patch clamp records ionic current or voltage across a cell membrane.)

Where a name gives a salt, the structure may show the parent alone.

T1 sequence (O95180 whole entry): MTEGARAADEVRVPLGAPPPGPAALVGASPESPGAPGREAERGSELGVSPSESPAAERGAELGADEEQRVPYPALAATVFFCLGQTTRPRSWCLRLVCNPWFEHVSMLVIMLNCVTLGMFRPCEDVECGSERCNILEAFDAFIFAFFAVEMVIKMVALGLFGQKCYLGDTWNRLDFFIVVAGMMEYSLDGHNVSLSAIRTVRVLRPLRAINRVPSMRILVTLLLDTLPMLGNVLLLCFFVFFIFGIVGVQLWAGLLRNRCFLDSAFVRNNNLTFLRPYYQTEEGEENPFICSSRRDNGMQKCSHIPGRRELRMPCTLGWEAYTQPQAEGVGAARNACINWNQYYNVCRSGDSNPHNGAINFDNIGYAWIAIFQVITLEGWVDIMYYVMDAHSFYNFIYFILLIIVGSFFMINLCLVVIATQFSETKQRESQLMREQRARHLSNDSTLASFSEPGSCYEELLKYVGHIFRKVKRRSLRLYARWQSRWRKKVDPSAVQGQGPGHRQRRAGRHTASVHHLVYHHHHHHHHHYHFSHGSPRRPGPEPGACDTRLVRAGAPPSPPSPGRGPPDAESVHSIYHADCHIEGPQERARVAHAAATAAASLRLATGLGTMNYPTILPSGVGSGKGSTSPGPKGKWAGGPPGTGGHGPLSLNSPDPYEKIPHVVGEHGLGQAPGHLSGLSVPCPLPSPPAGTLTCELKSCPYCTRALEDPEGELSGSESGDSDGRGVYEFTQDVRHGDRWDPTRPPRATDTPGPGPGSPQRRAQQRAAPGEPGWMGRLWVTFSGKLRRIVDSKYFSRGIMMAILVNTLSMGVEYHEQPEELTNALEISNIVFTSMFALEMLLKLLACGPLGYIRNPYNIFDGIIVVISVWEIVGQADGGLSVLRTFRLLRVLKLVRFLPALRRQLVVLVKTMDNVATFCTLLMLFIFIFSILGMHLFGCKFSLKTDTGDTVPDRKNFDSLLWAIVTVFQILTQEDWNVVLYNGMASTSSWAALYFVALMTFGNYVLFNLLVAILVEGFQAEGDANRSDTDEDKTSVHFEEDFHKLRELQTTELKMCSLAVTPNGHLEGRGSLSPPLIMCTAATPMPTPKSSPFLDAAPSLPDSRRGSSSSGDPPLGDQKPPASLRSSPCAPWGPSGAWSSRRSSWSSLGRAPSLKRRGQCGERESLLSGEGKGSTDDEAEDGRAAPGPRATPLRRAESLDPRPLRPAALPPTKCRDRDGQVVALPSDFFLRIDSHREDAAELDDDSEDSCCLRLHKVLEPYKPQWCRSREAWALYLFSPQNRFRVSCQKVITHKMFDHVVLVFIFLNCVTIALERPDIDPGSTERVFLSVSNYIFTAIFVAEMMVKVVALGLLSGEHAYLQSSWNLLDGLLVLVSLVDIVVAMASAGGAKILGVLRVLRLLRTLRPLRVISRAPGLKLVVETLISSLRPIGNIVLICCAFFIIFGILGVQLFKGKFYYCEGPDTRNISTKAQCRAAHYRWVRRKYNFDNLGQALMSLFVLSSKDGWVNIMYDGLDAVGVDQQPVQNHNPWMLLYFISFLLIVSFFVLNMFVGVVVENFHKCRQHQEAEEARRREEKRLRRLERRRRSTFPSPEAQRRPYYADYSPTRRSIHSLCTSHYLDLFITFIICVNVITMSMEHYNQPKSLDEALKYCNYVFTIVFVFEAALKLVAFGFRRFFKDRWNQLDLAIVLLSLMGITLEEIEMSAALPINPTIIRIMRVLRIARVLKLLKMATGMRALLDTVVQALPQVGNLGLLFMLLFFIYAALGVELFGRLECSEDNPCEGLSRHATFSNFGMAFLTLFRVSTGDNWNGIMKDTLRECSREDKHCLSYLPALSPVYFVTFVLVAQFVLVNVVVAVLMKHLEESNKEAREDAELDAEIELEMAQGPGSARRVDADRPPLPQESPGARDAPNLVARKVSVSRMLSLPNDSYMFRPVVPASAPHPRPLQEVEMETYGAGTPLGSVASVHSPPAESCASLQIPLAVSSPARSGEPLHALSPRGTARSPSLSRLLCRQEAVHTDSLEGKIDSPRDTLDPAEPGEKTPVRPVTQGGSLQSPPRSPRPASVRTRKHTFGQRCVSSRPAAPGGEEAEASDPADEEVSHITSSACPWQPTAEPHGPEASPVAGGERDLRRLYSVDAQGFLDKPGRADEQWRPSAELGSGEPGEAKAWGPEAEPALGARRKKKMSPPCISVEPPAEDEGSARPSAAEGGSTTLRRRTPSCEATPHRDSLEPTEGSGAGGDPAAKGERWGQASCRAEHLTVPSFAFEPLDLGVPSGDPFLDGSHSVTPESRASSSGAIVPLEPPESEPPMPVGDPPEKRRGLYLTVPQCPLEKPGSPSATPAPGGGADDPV

As usually defined, the IC50 is the midpoint of a concentration-inhibition curve. As for `CC(C)N1CC2(CCN(c3ccccn3)CC2)C1c1ccc(Cl)cc1` (stereo not drawn) [Example 3, 1-(4-Chlorophenyl)-2-(1-methylethyl)-7-(2-pyridinyl)-2,7-diazaspiro[3.5]nonane, formic acid salt], the IC50 turned out to be 4.99 µM.

Turning to `CC(C)N1CC2(CCN(c3nc4cc(F)c(C(F)(F)F)cc4[nH]3)CC2)C1c1ccc(Cl)cc1` (stereo not drawn) [Example 2], the half-maximal inhibitory concentration (IC50) was found to be 0.212 µM.

As to `CC(C)N1CC2(CCN(c3ncccn3)CC2)C1c1ccc(Cl)cc1` (stereo not drawn) [Example 4, 1-(4-Chlorophenyl)-2-(1-methylethyl)-7-(2-pyrimidinyl)-2,7-diazaspiro[3.5]nonane, formic acid salt], the IC50 came to 8.63 µM.
